Test results published in ChEMBL document CHEMBL4622960, “Design, synthesis and biological activity of novel substituted 3-benzoic acid derivatives as MtDHFR inhibitors” (Bioorg Med Chem, 2020).
Active and inactive are the calls of the source. No cut-off for these calls is given here.

What was measured:
Dihydrofolate reductase = target: T1, Dihydrofolate reductase (Mycobacterium tuberculosis, UniProt P9WNX1); test: Inhibition of recombinant Mycobacterium tuberculosis DHFR expressed in Escherichia coli BL21(DE3) cells using DHF as substrate and NADPH as cofactor by fluorimetric analysis
T1 sequence (P9WNX1 whole entry): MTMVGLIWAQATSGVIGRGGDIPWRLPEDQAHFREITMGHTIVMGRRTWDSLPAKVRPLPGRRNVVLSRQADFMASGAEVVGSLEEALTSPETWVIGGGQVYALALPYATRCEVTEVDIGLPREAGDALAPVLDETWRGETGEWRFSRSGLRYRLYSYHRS

[1] = target: T2, Dihydrofolate reductase (Mycobacterium tuberculosis) (UniProt P9WNX1); test: Potency index, ratio of MB872 IC50 to test compound IC50 for recombinant Mycobacterium tuberculosis DHFR expressed in Escherichia coli BL21(DE3) cells using DHF as substrate and NADPH as cofactor by fluorimetric analysis
T2 sequence (whole entry): T1 sequence (P9WNX1 whole entry)

[2] = target: T2, Dihydrofolate reductase (Mycobacterium tuberculosis); test: Uncompetitive inhibition of Mycobacterium tuberculosis DHFR assessed as varying Vmax using DHF as substrate and NADPH as cofactor by Michaelis-Menten analysis
[3] = target: T2, Dihydrofolate reductase (Mycobacterium tuberculosis); test: Uncompetitive inhibition of Mycobacterium tuberculosis DHFR assessed as constant Km using DHF as substrate and NADPH as cofactor by Michaelis-Menten analysis
[4] = target: T2, Dihydrofolate reductase (Mycobacterium tuberculosis); test: Potency index, ratio of trimethoprim IC50 to test compound IC50 for recombinant Mycobacterium tuberculosis DHFR expressed in Escherichia coli BL21(DE3) cells using DHF as substrate and NADPH as cofactor by fluorimetric analysis

Work on `COC(=O)c1ccc(COc2ccccc2)cc1` yielded an IC50 (Dihydrofolate reductase) of 152 µM.

Work on `COC(=O)c1cccc(COc2ccc(OC)cc2)c1` yielded an IC50 (Dihydrofolate reductase) of 242 µM.

With `O=C(O)c1cccc(OCc2ccccc2)c1` the IC50 (Dihydrofolate reductase) was 230 µM.

For `O=C(O)c1cccc(COc2ccc(O)cc2)c1`, the IC50 (Dihydrofolate reductase) was 36 µM and the Ratio IC50 [1] was 13 to 21.

Compound `c1ccc(OCc2cccc(-c3nnn[nH]3)c2)cc1` has an IC50 (Dihydrofolate reductase) of 454 µM.

`O=C(O)c1cccc(-n2cc(COc3ccccc3)nn2)c1` gave an IC50 (Dihydrofolate reductase) greater than 500 µM.

For `COC(=O)c1cccc(OCc2ccccc2)c1`, the IC50 (Dihydrofolate reductase) was greater than 500 µM.

In the case of `O=C(O)c1cccc(CNc2ccccc2)c1`, the inhibition [2] is reported as “Active”, the IC50 (Dihydrofolate reductase) is reported as 7 µM and the inhibition [3] is reported as “Active”. The Ratio IC50 [4] was 13 and the Ratio IC50 [1] was 71.

Compound `O=C(O)c1cccc(COc2ccccc2)c1` has an IC50 (Dihydrofolate reductase) of no less than 500 µM.

`COC(=O)c1cccc(COc2ccccc2)c1` showed an IC50 (Dihydrofolate reductase) greater than 500 µM.

With `COc1ccc(OCc2ccc(C(=O)O)cc2)cc1` the IC50 (Dihydrofolate reductase) was 31 µM and the Ratio IC50 [1] was 19.

`O=C(O)c1ccc(COc2ccccc2)cc1` showed an IC50 (Dihydrofolate reductase) of 442 µM.

In the case of `COc1ccc(OCc2cccc(C(=O)O)c2)cc1`, the IC50 (Dihydrofolate reductase) is reported as 119 µM.

With `COC(=O)c1cccc(-n2cc(COc3ccccc3)nn2)c1` the IC50 (Dihydrofolate reductase) was 81 µM.

In the case of `COC(=O)c1cccc(COc2ccc([N+](=O)[O-])cc2)c1`, the IC50 (Dihydrofolate reductase) is reported as 35 µM and the Ratio IC50 [1] is reported as 13 to 21.

Work on `O=C(O)c1cccc(COc2ccc([N+](=O)[O-])cc2)c1` yielded an IC50 (Dihydrofolate reductase) of 23 µM and a Ratio IC50 [1] of 13 to 21.

`COC(=O)c1cccc(CSc2ccccc2)c1` gave an IC50 (Dihydrofolate reductase) of 76 µM.

With `COC(=O)c1ccc(COc2ccc(OC)cc2)cc1` the IC50 (Dihydrofolate reductase) was 26 µM and the Ratio IC50 [1] was 16.

For `O=C(O)c1cccc(CSc2ccccc2)c1`, the IC50 (Dihydrofolate reductase) was 128 µM.
